Measured values taken from patent US12617783B2, “Heterocyclic GLP-1R agonists” (BIOMEA FUSION, INC., priority 2024, dated 2026).
“Also recorded” adds a separate entry of the source. Like-named read-outs stand apart in the source and are kept apart here.

Assays:
[1] = test system: Type 2 diabetic donor islets; assay: Glucose-stimulated insulin secretion (GSIS) in Type 2 diabetic donor islets cultured ex vivo; type: cell-based; conditions: islets cultured ex vivo for 8 days (FIG. 1A) or 12 days (FIG. 1B); compared with orforglipron or DMSO
Procedure: Islets from a Type 2 diabetic donor were cultured ex vivo for 8 days (FIG. 1A) or 12 days (FIG. 1B) were assayed for GSIS in the presence of compound 36 (cpd 36), orforglipron or DMSO. Basal insulin secretion, stimulated insulin secretion and secretion index were measured.

[2] = test system: islets from a non-diabetic donor; assay: Glucose-stimulated insulin secretion (GSIS) in non-diabetic donor islets cultured ex vivo; type: cell-based; conditions: compared with orforglipron or DMSO
Procedure: Donor islets cultured ex vivo were assayed for GSIS in the presence of compound 36 (cpd 36), orforglipron or DMSO. Basal insulin secretion, stimulated insulin secretion and secretion index were measured.
Donor islets cultured ex vivo were assayed for GSIS in the presence of compound 214, orforglipron or DMSO. Basal insulin secretion, stimulated insulin secretion and secretion index were measured.

[3] = target: T1, human GLP-1R (Homo sapiens, UniProt P43220); assay: GLP-1R cAMP assay (Example B1a, HTRF, 30 min at room temperature); type: cell-based
T1 construct: host or cells: HEK293
T1 sequence (P43220 24-463): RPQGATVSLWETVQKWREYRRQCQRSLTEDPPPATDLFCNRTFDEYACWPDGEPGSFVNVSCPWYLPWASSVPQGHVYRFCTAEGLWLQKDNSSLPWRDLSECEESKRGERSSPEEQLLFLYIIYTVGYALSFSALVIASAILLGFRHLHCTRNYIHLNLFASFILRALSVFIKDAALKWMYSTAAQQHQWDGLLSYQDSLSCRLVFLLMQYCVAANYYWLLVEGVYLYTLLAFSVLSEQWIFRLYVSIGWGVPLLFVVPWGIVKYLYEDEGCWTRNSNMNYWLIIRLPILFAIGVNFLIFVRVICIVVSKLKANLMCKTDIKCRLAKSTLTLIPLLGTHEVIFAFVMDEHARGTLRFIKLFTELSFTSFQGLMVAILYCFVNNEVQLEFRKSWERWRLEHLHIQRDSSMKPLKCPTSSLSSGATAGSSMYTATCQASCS
How it was run: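 Competitive HTRF read-out of cAMP after 30 min room-temperature stimulation, BETP absent, of human GLP-1R-HEK293 cells (1,000/well) in HEPES buffer with 500 μM IBMX and 0.1% BSA. Activation normalised to GLP-1(7-37) positive control. EC50 from 4-parameter non-linear regression.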

[4] = test system: ex-vivo cultured islets from a T2D donor; assay: Glucose-Stimulated Insulin Secretion (GSIS) assay, islets from a T2D donor; type: cell-based
Procedure: (§1) Glucose-Stimulated Insulin Secretion (GSIS) Assay
(§2) Purified islets from healthy or Type 2 diabetic donors (Prodo Laboratory, Inc., Aliso Viejo, CA) were cultured in PIM(S) media (Prodo) with 8 mM or 11 mM glucose in a 37° C. water-jacketed incubator with 5% CO2. The GSIS assay followed published procedure (Zhu et al. 2015; Ho et al. 2023). Briefly, islets were conditioned in Krebs-Ringer bicarbonate buffer (KRB, 111 mM NaCl, 4.8 mM KCl, 25 mM NaHCO3, 2.3 mM CaCl2, 1.2 mM MgSO4, 0.15 mM Na2HPO4, 1.2 mM KH2PO4, 10 mM HEPES, 0.2% BSA) containing 2.8 mM glucose for 2 hours with 0.05% DMSO, compound 36 or orforglipron. Size-matched islets were used for each test condition. Islets were washed with KRB once and incubated in fresh KRB containing 2.8 mM glucose with 0.05% DMSO or corresponding compound for one hour to measure the basal insulin secretion in 2.8 mM glucose. Glucose concentration was increased to 11 mM and islets stimulated for one hour in the presence of 0.05% DMSO or corresponding compound to measure stimulated insulin secretion. Supernatants were harvested and insulin secreted under basal and glucose stimulated conditions were quantified using an ELISA kit (ALPCO, Salem, NH). Islets were lysed and genomic DNA was extracted using silicon spin column (Qiagen, Venlo, Netherlands). Insulin secretion was normalized to total genomic DNA.
Insulin secretion index is the ratio of stimulated insulin secretion at 11 mM glucose/basal insulin secretion at 2.8 mM glucose. […] (Ho, K. H., A. Jayathilake, Y. Mahircan, A. Nour, A. B. Osipovich, M. A. Magnuson, G. Gu, and I. Kaverina. 2023. CAMSAP2 localizes to the Golgi in islet beta-cells and facilitates Golgi-ER trafficking, iScience, 26:105938.Zhu X., R. Hu, M. Brissova, R. W. Stein, A. C. Powers, G. Gu, and I. Kaverina. 2015. Microtubules Negatively Regulate Insulin Secretion in Pancreatic beta Cells, Dev Cell, 34:656-68).

[5] = test system: ex-vivo cultured islets from a healthy donor; assay: Glucose-Stimulated Insulin Secretion (GSIS) assay, islets from a healthy donor; type: cell-based; conditions: compared to DMSO, FIG. 2
Procedure: as §1
as §2, with “DNA. […]” for “DNA.”

[6] = Pharmacokinetic analysis in male SD rats; type: in vivo
Procedure: The rats have free access to food and water. Blood samples were collected pre-dose and 0.083, 0.25, 0.5, 1, 2, 4, 8, 24 hours post dose for i.v. administration group. Blood samples were also collected pre-dose and 0.25, 0.5, 1, 2, 4, 8, and 24 hours after administration in orally dosing group.

[7] = cynomolgus monkey, in vivo
Procedure: (§3) Pharmacokinetic Analysis of the Compound 36, Compound 121, Compound 214, and Orforglipron in Cynomolgus Monkeys
(§4) Non naïve male cynomolgus monkeys (n=3 monkeys/group) were fasted overnight and fed 4 hours post dose. Compounds of the present application were formulated in 10% polyethylene glycol 400/10% propylene glycol/80% glycine buffer (100 mM glycine, 64 mM NaOH, pH 10).
(§5) The compound was administered by i.v. infusion for 30 minutes at 0.12 mg/kg (dose volume 1 mL/kg at a speed of 2 mL/kg/h) or orally doses of 0.36 mg/kg. Blood samples were collected pre-dose and 0.25, 0.5 (just before the infusion is stopped), 0.75, 1, 1.5, 2.5, 4, 8, 16, 24 hr post dose for i.v. administration group. Blood samples were also collected pre-dose, 0.5, 1, 2, 3, 4, 8, 16 and 24 hr after administration in orally dosing group.

[8] = in vivo; conditions: male, cynomolgus monkey
Procedure: as §3, §4, §5

[9] = Sprague-Dawley (SD), rat, plasma, 1.0 mg/kg iv
[10] = Sprague-Dawley (SD), rat, plasma, 5.0 mg/kg po

In the case of `Cc1cc(-n2nc3c(c2-n2ccn(-c4ccc5c(cnn5C)c4F)c2=O)[C@@H]2CC[C@H](C3)N2C(=O)c2cc3cc([C@H]4CCOC(C)(C)C4)ccc3n2[C@@]2(c3noc(=O)[nH]3)C[C@@H]2C)cc(C)c1F` [Compound 36, 3-((1S,2S)-1-(5-((S)-2,2-dimethyltetrahydro-2H-pyran-4-yl)-2-((4S,7R)-3-(3-(4-fluoro-1-methyl-1H-indazol-5-yl)-2-oxo-2,3-dihydro-1H-imidazol-1-yl)-2-(4-fluoro-3,5-dimethylphenyl)-2,4,5,6,7,8-hexahydro-4,7-epiminocyclohepta [c]pyrazole-9-carbonyl)-1H-indol-1-yl)-2-methylcyclopropyl)-1,2,4-oxadiazol-5(4H)-one], the “responsiveness of Type 2 diabetic donor islets to glucose stimulation (GSIS)” value [1] is reported as “increases the responsiveness of Type 2 diabetic donor islets to glucose stimulation”, the “glucose-stimulated insulin secretion in islets from a non-diabetic donor” value [2] is reported as “increases glucose-stimulated insulin secretion” and the “EC50 Ratio” value ([3]; Table 1d, potency ratio of stereoisomer pair (less potent / more potent isomer)) is reported as over 94. It also gave an EC50 ([3]; Table 1d, stereoisomer pairs, read-out: EC50) of 109 nM, an EC50 ([3]; cAMP accumulation in HEK293 expressing human GLP-1R, no BETP, 30 min room temperature (Method B1a, compounds ID 1-609), Table 1, read-out: EC50) of 109 nM and an EC50 ([3]; text to Table 1d, bridge atoms configured into the plane or away from the reader, read-out: potency (EC50)) of under 1000 nM. The basal insulin secretion ([4]; 2.8 mM glucose, FIG. 1A) was “decreased”, the stimulated insulin ([4]; 11 mM glucose, FIG. 1A) was “improved” and the “glucose-stimulated insulin secretion (GSIS)” value ([4]; FIG. 1) was “potentiated GSIS; also recorded: overall relatively better than orforglipron”. For the same compound, the insulin secretion index ([4]; ratio of stimulated insulin secretion at 11 mM glucose/basal insulin secretion at 2.8 mM glucose, FIG. 1B) was “improved”, the “insulin secretion upon glucose stimulation” value [5] was “potentiated islets to secrete more insulin upon glucose stimulation compared to DMSO” and the “Oral F” value ([6]; 5.0 mg/kg po vs 1.0 mg/kg iv) was 29.6%. The AUC(0-inf) [6, 9] was 5050 ng·h/mL, the clearance [6, 9] was 3.33 mL/min/kg and the half-life [6, 9] was 5.04 h. The Vd ([6]; Sprague-Dawley (SD), rat, plasma, 1.0 mg/kg iv, read-out: Vdss) was 1.09 L/kg, the AUC(0-inf) [6, 10] was 7480 ng·h/mL and the Cmax [6, 10] was 610 ng/mL. The Tmax [6, 10] was 3.33 h, the half-life [6, 10] was 4.93 h and the “exposure compared with Orforglipron” value ([6]; same doses (iv 1 mg/kg and po 5 mg/kg)) was “significant higher exposure”. The “oral bioavailability compared with Orforglipron” value [7] was “better oral bioavailability”, the “Oral F” value ([7]; male) was 50.2% and the AUC(0-inf) ([8]; iv, 0.12 mg/kg) was 512 ng·h/mL. The Vd ([8]; iv, 0.12 mg/kg) was 1.13 L/kg, the clearance ([8]; iv, 0.12 mg/kg) was 3.98 mL/min/kg and the half-life ([8]; iv, 0.12 mg/kg) was 4.55 h. It also gave an AUC(0-inf) ([8]; po, 0.36 mg/kg) of 771 ng·h/mL, a Cmax ([8]; po, 0.36 mg/kg) of 121 ng/mL and a Tmax ([8]; po, 0.36 mg/kg) of 2 h. It also gave a half-life ([8]; po, 0.36 mg/kg) of 4.22 h.
